{"source": "patent US7186354B2", "about": "“Anticorrosive treating concentrate” (NEC Electronics Corporation, priority 2000, dated 2007)", "experiment": "solubility of BTA in water (FIG. 1)", "type": "physicochemical"}
{"smiles": "c1ccc2[nH]nnc2c1", "note": "[BTA, benzotriazole]", "values": [{"measurement": "solubility of BTA in water", "setting": "10° C.", "value": "about 1%"}, {"measurement": "solubility of BTA in water", "setting": "20° C.", "value": "about 1.9%"}, {"measurement": "solubility of BTA in water", "setting": "30° C.", "value": "about 4%"}, {"measurement": "solubility of BTA in water", "setting": "80° C.", "value": "about 8%"}, {"measurement": "solubility in water", "setting": "water of 20° C.", "value": "about 1.9 wt-%"}]}
